Assay results from patent publication EP4775579A1, “BERBERRUBINE-RELATED COMPOUND” (Mitogenic Co., Ltd., priority 2023, dated 2025).
Structures can show the parent of a compound that is named as a salt.

Tests used:
C2C12 cells = assay: Oxygen consumption rate (OCR) of C2C12 cells, extracellular flux analyzer (basal respiration, ATP synthesis, maximal respiration); assay type: cell-based; conditions: 30 µM
Procedure: A DMSO solution of 3.5 mg/mL of quinoid-type berberrubine was added to C2C12 cells in Dulbecco's modified Eagle (DMEM) medium containing 10% fetal bovine serum (FBS), penicillin, and streptomycin, such that the final concentration was 30 µM (FIG. 4A).
As a control, the same amount of water was added to the C2C12 cells described above.
During this period, the oxygen consumption rate (OCR) of the C2C12 cells was measured over time using an extracellular flux analyzer.
The OCR during the period between the addition of the ATP synthase inhibitor and the addition of the uncoupling agent, the OCR during the period between the addition of the uncoupling agent and the addition of the mitochondrial complex inhibitor, and the OCR in the period after the addition of the mitochondrial complex inhibitor each correlate with the amount of basal respiration, ATP synthesis, and maximal respiration in mitochondria. Thus, the amount of basal respiration, ATP synthesis, and maximal respiration in mitochondria were evaluated using OCR at the points of 30, 60, and 90 minutes as indicators.

[1] = test system: mitochondrial respiratory chain supercomplexes; assay: Formation of mitochondrial respiratory chain supercomplexes, FRET between GFP-complex I and RFP-complex IV in C2C12 cells; assay type: cell-based; conditions: 3, 10, 30, or 60 µM; 24 hours after addition
Procedure: At the point of 24 hours after addition, formation of a mitochondrial respiratory chain supercomplex was detected by detecting FRET between GFP and RFP, resulting from the association of complex I and complex IV.

[2] = test system: Mouse fetal fibroblast (MEF) cells; assay: Tom20 immunofluorescence staining, content of mitochondria in MEF cells; assay type: cell-based; conditions: 30 µM, 48 hours after addition
Procedure: (§1) 48 hours after addition, Tom20, which is a mitochondrial outer membrane protein, was detected by immunofluorescence staining. For the detection of Tom20, the anti-Tom20 antibody (Santa Cruz, sc-11415) was used.

PINK1-knockout MEF cells = assay: Tom20 immunofluorescence staining, content of mitochondria in PINK1-knockout MEF cells (Parkinson's disease model); assay type: cell-based, Mouse; conditions: 30 µM, 48 hours after addition
Procedure: as §1
Note that PINK1 is the gene responsible for Parkinson's disease, and PINK1 deficiency causes mitochondrial dysfunction associated with Parkinson's disease. Therefore, PINK1-knockout MEF cells are used as a model for patients affected by Parkinson's disease.

HeLa cells = assay: Cancer cell growth, trypan blue cell count; assay type: cell-based, human; conditions: 30 µM; 24, 48, and 72 hours after addition
Procedure: Cells were collected at 24, 48, and 72 hours after addition and stained with trypan blue, and the number of cells were measured. Note that the HeLa cells are cell lines derived from human uterus cancer cells and are widely used as model cells for cancer.

tau proteins = assay: Western blotting of tau proteins in Neuro2A cells with aggregated tau; assay type: cell-based; conditions: 30 µM, 8 hours of culturing
Procedure: Neuro2A cells were introduced with ΔN-P301Ltau-CRY2olig by transfection. One day after introduction, nocodazole was added to stop the cell cycle, and subsequent blue light irradiation for 24 hours induced the aggregation of tau proteins in the cells.
After 8 hours of culturing after addition, the tau proteins in the cells were detected by means of Western blotting using an antibody against phosphorylated Tau at position S396 (pS396), an antibody against phosphorylated Tau at position S422 (pS422), an antibody against full length Tau (JM), and an antibody against the C-terminal region of Tau (tauC). The tau proteins were detected at around 100 kDa.

mouse spermatozoa = assay: Sperm motility and MitoTracker staining after oral administration to mice; assay type: in vivo
Procedure: Male C57BL/6NJcl mice aged 9 to 10 weeks were orally administered 1.25% agar containing 0.35 mg/mL of quinoid-type berberrubine or 1.25% agar not containing quinoid-type berberrubine for 2 weeks. The oral administration was performed by placing a container containing this agar in a cage with the mice, such that the mice could constantly ingest this agar from the container (subsequent oral administration of agar to mice was performed in the same manner). At 20 weeks of age, the mice were anesthetized isoflurane (KANTO KAGAKU), euthanized by cervical dislocation, and had their testes and epididymis removed. The removed epididymis was cut into pieces with scissors in 1 mL of phosphate buffered saline (PBS) and then placed at room temperature for 1 hour, thereby preparing sperm samples. 20 µL of the sample was transferred to a glass bottom dish, and mitochondria and nuclei were stained by MitoTracker (manufactured by Thermo Fisher Scientific) and Hoechst (manufactured by NACALAI TESQUE, INC.), respectively.

mice irradiated with UV = assay: Skin of UV-irradiated mice, visual observation; assay type: in vivo; conditions: oral, 1.25% agar containing 0.35 mg/mL for 2 months; UV 3 times a week for 8 weeks
Procedure: Male C57BL/6NJcl mice aged 8 weeks were orally administered 1.25% agar containing 0.35 mg/mL of quinoid-type berberrubine or 1.25% agar not containing quinoid-type berberrubine (control) for 2 months. The skin of the mice during the same period was irradiated with UV 3 times a week for 8 weeks. The irradiation dose was 1 mW/cm^2 for 70 seconds (70 mJ/cm^2) in the first week, 1 mW/cm^2 for 80 seconds (80 mJ/cm^2) in the second week, 1 mW/cm^2 for 90 seconds (90 mJ/cm^2) in the third week, and 1 mW/cm^2 for 100 seconds (100 mJ/cm^2) in the fourth week and thereafter. At the end of the same period, the skin of the mice was visually observed.

mouse visceral fat = assay: Accumulation of visceral fat in mice; assay type: in vivo; conditions: male mice aged 50 weeks; oral, 1.25% agar containing 0.35 mg/mL for 2 months
Procedure: Male C57BL/6NJcl mice aged 50 weeks were orally administered 1.25% agar containing 0.35 mg/mL of quinoid-type berberrubine or 1.25% agar not containing quinoid-type berberrubine (control) for 2 months. At the end of the period, accumulation of visceral fat in the mice was observed.

brown fat cells = assay: TMRM/Hoechst fluorescence microscopy of primary cultured brown fat cells; assay type: cell-based, mice; conditions: 30 µM, 48 hours after addition
Procedure: Brown fat cells removed from fetal C57BL/6NJcl mice were cut into pieces with scissors in an isolation buffer solution (0.123 M of sodium chloride, 5 mM of glucose, 5 mM of potassium chloride, 1.3 mM of calcium chloride, 100 mM of HEPES-NaOH (pH 7.4), 4% BSA) containing 1 mg/mL of collagenase, and warmed in a water bath at 37 °C for 30 minutes. After removal of aggregates using a cell strainer, the cells were collected by centrifugation at 1000 x g for 5 minutes and suspended in a DMEM medium containing 20% FBS, thereby preparing primary cultured cells of the brown fat cells.
Moreover, as a control, the same amount of DMSO as in the DMSO solution of quinoid-type berberrubine was added to the primary cultured cells.
The primary cultured cells cultured for 48 hours after addition had the nuclei stained with Hoechst (manufactured by NACALAI TESQUE, INC.) and mitochondria stained with tetramethylrhodamine methyl ester (TMRM, manufactured by Thermo Fisher Scientific) and then were observed under a fluorescence microscope (magnification: 60x).

C57BL/6N24 mice = assay: M-mode echocardiography in aged mice; assay type: in vivo; conditions: mice from 24 months of age, 12 weeks after start; adduct 0.5 mg/mL in drinking water; quinoid-type 0.5 mg/mL in diet
Source text: The results of echocardiography using the M-mode echocardiography technique on the mice 12 weeks after the start of administration are shown in FIG. 16.
The results of echocardiography using the M-mode echocardiography technique on the mice 12 weeks after the start of administration are shown in FIG. 20.

[3] = test system: cardiac failure and myocardial fibrosis markers; assay: Quantitative RT-PCR of cardiac failure and myocardial fibrosis markers in aged mice; assay type: in vivo; conditions: mice from 24 months of age, 12 weeks after start; adduct 0.5 mg/mL in drinking water; quinoid-type 0.5 mg/mL in diet
Source text: Moreover, the results of quantifying cardiac failure and myocardial fibrosis markers in the mice 12 weeks after the start of administration by means of quantitative RT-PCR are shown in FIG. 18.
Moreover, the results of quantifying cardiac failure and myocardial fibrosis markers in the mice 12 weeks after the start of administration by means of quantitative RT-PCR are shown in FIG. 21.

mitochondrial mRNA = assay: Quantitative RT-PCR of mitochondrial mRNA in aged mice; assay type: in vivo; conditions: mice from 24 months of age, 12 weeks after start; adduct 0.5 mg/mL in drinking water; quinoid-type 0.5 mg/mL in diet
Source text: Moreover, the results of quantifying the mRNA expression of mitochondria in the mice 12 weeks after the start of administration by means of quantitative RT-PCR are shown in FIG. 19.
Moreover, the results of quantifying the expression of Mitol which is mRNA of mitochondria in the mice 12 weeks after the start of administration by means of quantitative RT-PCR are shown in FIG. 22.

[4] = test system: mitochondria isolated from cardiomyocytes of mice; assay: OCR of mitochondria isolated from cardiomyocytes of treated mice, flux analyzer; assay type: in vivo; conditions: 12 weeks after start; adduct 0.5 mg/mL in drinking water; quinoid-type 0.5 mg/mL in diet
Source text: Moreover, mitochondria were isolated from cardiomyocytes of mice 12 weeks after the start of administration using a standard method. 23A and 23B.

[5] = literature value; cited from earlier work

Source text for physchem: Determine the minimum amount (mL) of the solvent that can completely dissolve the berberrubine-related compound by changing the volume of the solvent, as appropriate. Calculate the solubility (g/mL) of each berberrubine-related compound in each solvent from the used berberrubine-related compound (1 g) and the minimum volume (mL) of the solvent.
By changing the volume of the solvent, as appropriate, the minimum amount (mL) of the solvent that can completely dissolve the berberrubine-related compound was determined. From the used berberrubine-related compound (1 g) and the minimum volume (mL) of the solvent, the solubility (g/mL) of each berberrubine-related compound in each solvent was determined.

For `COc1ccc2cc3n(cc-2c1=O)CCc1cc2c(cc1-3)OCO2` [quinoid-type berberrubine, 10-methoxy-5,6-dihydro-9H-[1,3]dioxolo[4,5-g]isoquinolino [3,2-a]isoquinolin-9-one], which “basal respiration in mitochondria, enhancement compared to the controls” value (C2C12 cells; 24 hours after addition, OCR at 30 minutes) is on record?
Its value is “about 4 fold”.

What about the “ATP synthesis in mitochondria, enhancement compared to the controls” value (C2C12 cells; 24 hours after addition, OCR at 60 minutes) of the same compound?
Its value is “about 4 fold”.

And the “maximal respiration in mitochondria, enhancement compared to the controls” value (C2C12 cells; 24 hours after addition, OCR at 90 minutes)?
The value was “about 4 fold”.

What about the “ATP synthesis in mitochondria, compared to the addition of the berberrubine acetic acid adduct” value (C2C12 cells; C2C12 cells) of the same compound?
Its value is “about 2.5 fold”.

And the “basal respiration in mitochondria, compared to the addition of the berberrubine acetic acid adduct” value (C2C12 cells; C2C12 cells)?
Its value is “about 2.5 fold”.

What about the “maximal respiration in mitochondria, compared to the addition of the berberrubine acetic acid adduct” value (C2C12 cells; C2C12 cells) of the same compound?
The value was “about 2.6 fold”.

And the “formation of mitochondrial respiratory chain supercomplexes (FRET between GFP and RFP)” value [1]?
Its value is “promoted the formation of mitochondrial respiratory chain supercomplexes in a concentration-dependent manner”.

And the “content of mitochondria in the cells compared to the control” value [2]?
Its value is “increased”.

What about the “content of mitochondria in the cells” value (PINK1-knockout MEF cells) of the same compound?
The value was “increased”.

What about the “ratio of the number of HeLa cells after administration with respect to the number of HeLa cells in the control” value (HeLa cells) of the same compound?
Its value is “decreased over time”.

What about the “expression level of full-length Tau” value (tau proteins) of the same compound?
Its value is “no significant changes”.

What about the “ratio of the expression level of phosphorylated Tau at position S396 with respect to that of full-length Tau (pS396-tau/JM), reduction compared to the control” value (tau proteins) of the same compound?
The value was “about 35%”.

And the “ratio of the expression level of phosphorylated Tau at position S422 with respect to that of full-length Tau (pS422-tau/JM), reduction compared to the control” value (tau proteins)?
The value was “no significant changes”.

And the “number of spermatozoa in which mitochondria were stained with MitoTracker, increase compared to the control” value (mouse spermatozoa; 1.25% agar containing 0.35 mg/mL for 2 weeks)?
The value was “about twofold”.

And the “sperm motility compared to the control” value (mouse spermatozoa; quinoid-type: 1.25% agar containing 0.35 mg/mL for 2 weeks, adduct: 2 mg/mL aqueous solution)?
The value was “more actively motile”.

What about the “number of wrinkles compared to mice not administered” value (mice irradiated with UV) of the same compound?
Its value is “fewer”.

What about the “skin darkening compared to mice not administered” value (mice irradiated with UV) of the same compound?
Its value is “inhibited”.

And the “wrinkle depths compared to mice not administered” value (mice irradiated with UV)?
Its value is “shallower”.

And the “visceral fat accumulation compared to mice not administered” value (mouse visceral fat)?
The value was “inhibited”.

What about the “increase in amount of active mitochondria having normal membrane potential, compared to the addition of a berberrubine acetic acid adduct” value (brown fat cells) of the same compound?
The value was “to a greater extent”.

What about the “staining of mitochondria by TMRM (active mitochondria having normal membrane potential)” value (brown fat cells) of the same compound?
Its value is “strong staining”.

What about the “% left ventricular fractional shortening (%FS) compared to the control” value (C57BL/6N24 mice) of the same compound?
The value was “increase”.

What about the “left ventricular ejection fraction (LVEF) compared to the control” value (C57BL/6N24 mice) of the same compound?
The value was “increase”.

What about the “left ventricular end-diastolic diameter (LVDd) compared to the control” value (C57BL/6N24 mice) of the same compound?
Its value is “decrease”.

What about the “left ventricular end-systolic diameter (LVDs) compared to the control” value (C57BL/6N24 mice) of the same compound?
Its value is “decrease”.

And the “left ventricular filling pressure (E/e') compared to the control” value (C57BL/6N24 mice)?
Its value is “decrease”.

What about the “expression levels of cardiac failure markers (Nppa, Nppb, and Myh7) compared to the control” value [3] of the same compound?
The value was “reduced”.

And the “expression levels of myocardial fibrosis markers (Collagen1 and Ctgf) compared to the control” value [3]?
Its value is “reduced”.

What about the “expression of Mitol compared to the control” value (mitochondrial mRNA) of the same compound?
The value was “increase”.

And the “oxygen consumption rate (OCR) in State 2 (ADP-limited state) compared to the control” value [4]?
Its value is “increased”.

What about the “oxygen consumption rate (OCR) in State 3 (activated respiratory state) compared to the control” value [4] of the same compound?
The value was “increased”.

And the “oxygen consumption rate (OCR) in State 3u (uncoupled state) compared to the control” value [4]?
The value was “increased”.

And the “oxygen consumption rate (OCR) in State 4o (oligomycin-induced state) compared to the control” value [4]?
Its value is “increased”.

And the “SOLUBILITY (g/mL) OF BERBERRUBINE-RELATED COMPOUND IN 1 mL OF SOLVENT, WATER” value [5]?
The value was 0.000013 (LITERAT URE VALUE) g/mL.

With `COc1ccc2cc3n(cc-2c1=O)CCc1cc2c(cc1-3)OCO2` [berberrubine acetate salt] as the compound, how does the solubility at 0.5 h (physchem; methanol) read?
The solubility at 0.5 h was 34 mg/mL.

And the solubility at 0.5 h (physchem; water)?
The solubility at 0.5 h was 30 mg/mL.
